This note sets out measurements from article PMC5513444, “The synthesis and evaluation of triazolopyrimidines as anti-tubercular agents” (Bioorganic & Medicinal Chemistry, 2017).

Values after ≈ are worked out from the molar mass of the structure shown. Bounds are passed on as bounds.

The term MIC99 denotes an inhibitory concentration at the 99% level, which refers to growth in some studies and to a panel of isolates in others. Read a low MIC99 as higher susceptibility. What is called fraction unbound is the share of the substance not bound to proteins or other matrix. Broadly, the Cmax is the maximum level reached in the sampled fluid or tissue.

The nature of data set [1]: Turnover by human liver microsomes. Type of data set: in vitro ADME. How it is done:
(§1) Based on in silico ADME predictions, three compounds were chosen to cover a range of cLogP values and were evaluated for their in vitro microsomal stability (Table 7). Rapid metabolism of compound 44 was observed, in rodent and human liver microsomes. The para-OCF3 analog 48 was also rapidly metabolized. The amide (49) had improved in vitro microsomal stability, with only 12% loss after 30 min in mouse microsomes, 22% loss in rat microsomes and 31% loss in human microsomes. The difference in stability for these three compounds is probably due to presence of more than one oxidatively-labile carbon in 44 and 48 (both have a two carbon linker), while 49 has only one such soft spot, although these have not been confirmed with metabolite identification studies.
A general note: Liver microsomes are vesicles of endoplasmic reticulum, rich in cytochrome P450 enzymes.

For data set [2], the system named is Bacillus subtilis Marburg. The data set can be described thus: MIC99 on solid medium, B. subtilis. Type of data set: cell-based. The conditions noted are these: nutrient agar, 28 °C, 3–4 days.
The subject of the next data set is HepG2 cells. The experiment in a line: Cytotoxicity against HepG2 cell line (CellTiter-Glo). Type of data set: cell-based. For orientation: Cellular ATP, detected with luciferase, serves as a proxy for viable cell number.
The nature of data set [3]: Fraction unbound in mouse plasma. Type of data set: in vitro ADME. The conditions noted are these: read-out: Mouse Fu,pl (fraction unbound in plasma). The source says: Table 7 In vitro ADME and in vivo PK. | column: Mouse Fu,pl ^a
Data set [4] deals with M. tuberculosis H37Rv. The experiment in a line: MIC99 on solid medium, M. tuberculosis. Type of data set: cell-based, Mycobacterium tuberculosis. The conditions noted are these: solid medium 7H10-OADC, 4 weeks, lowest concentration yielding less than 1% growth.
Data set [5] can be described thus: Turnover by rat liver microsomes. Type of data set: in vitro ADME. As to the method:
as §1

Another data set has as its system Escherichia coli DH5α. The experiment in a line: MIC99 on solid medium, E. coli. The conditions noted are these: 24 h, LB agar, 1 day. Type of data set: cell-based.
In data set [6] the test system is M. tuberculosis H37Rv. The data set can be described thus: MIC90 against M. tuberculosis in liquid medium. Type of data set: cell-based, Mycobacterium tuberculosis. The conditions noted are these: Mycobacterium tuberculosis, H37RV, 120 h; liquid medium 7H9-Tw-OADC, aerobic, 5 days; average ± SD of two independent experiments; read-out: MIC (MIC90, minimum concentration required to inhibit growth of M. tuberculosis by 90%).

Data set [7] is described as follows: Turnover by mouse liver microsomes. Type of data set: in vitro ADME. How it is done:
as §1

The test system of data set [8] is Pseudomonas aeruginosa HER1018 (PAO1). The data set can be described thus: MIC99 on solid medium, P. aeruginosa. Type of data set: cell-based. The conditions noted are these: PAO1, 24 h, tryptic soy agar, 1 day.
Data set [9] is described as follows: In vivo mouse PK after oral and intravenous administration. The conditions noted are these: male mice, oral 10 mg/kg. How it is done:
The oral exposure of the three compounds was evaluated in male mice by comparing exposures following oral (PO) and intravenous (IV) administration of 10 and 1 mg/kg doses of compounds, respectively (Table 7).

The test system of another data set is M. tuberculosis. The data set can be described thus: Kill kinetics against M. tuberculosis in liquid culture. Type of data set: cell-based, Mycobacterium tuberculosis.
For data set [10], the system named is Saccharomyces cerevisiae Y187. The data set can be described thus: MIC99 on solid medium, S. cerevisiae. The conditions noted are these: YPD agar, 3–4 days.
For data set [11], the system named is Mycobacterium smegmatis mc^2155. The data set can be described thus: MIC99 on solid medium, M. smegmatis. Type of data set: cell-based. The conditions noted are these: Mycolicibacterium smegmatis, 3–4 days.

For the molecule `FC(F)(F)Oc1ccc(CCNc2cc(-c3ccccc3)nc3ncnn23)cc1` [Compound 48, 5-Phenyl-N-(4-(trifluoromethoxy)phenethyl)-[1,2,4]triazolo[1,5-a]pyrimidin-7-amine], in data set [1], the “% turnover by liver microsomes in 30 min, Human” value is reported as 32.8%. Also, the MIC99 was more than 10 µM in [2]; 1.6 µM (≈ 0.639 µg/mL) against M. tuberculosis H37Rv [4] (Mycobacterium tuberculosis, H37RV, 672 h); less than 20 µM against M. tuberculosis H37Rv [4]; more than 10 µM in the data set on Escherichia coli DH5α; more than 100 µM in data set [8]; more than 10 µM in data set [11]. For the same molecule, in the data set with HepG2 cells (HepG2 IC50 / M. tuberculosis MIC90), the “Selectivity index (SI) = IC50/MIC90” value is listed as more than 27. Besides, in the data set with HepG2 cells (Homo sapiens, 48 h, HepG2, 2 days incubation, read-out: IC50 (concentration required to reduce the viability of HepG2 cells by 50%)), the IC50 was more than 100 µM. Besides, the free fraction (fraction unbound) in data set [3] amounted to 0.007. For the same molecule, in data set [5], the “% turnover by liver microsomes in 30 min, Rat” value is 52.7%. The MIC90 in the data set on M. tuberculosis H37Rv [6] was 3.9 ± 1.1 µM (≈ 1.56 µg/mL). For the same molecule, in data set [7], the “% turnover by liver microsomes in 30 min, Mouse” value is listed as 52.1%. The molecule further registered a peak concentration (Cmax) in data set [9] of 958 nM. Moreover, the “PO AUC” value in data set [9] amounted to 2.75 µM·h. Moreover, the “PO Tmax” value in [9] turned out to be 0.75 h. Further, the “PO t1/2” value in [9] worked out at 2.49 h. In the data set with M. tuberculosis (non-replicating bacteria (starvation conditions, PBS-Ty), over 14–21 days), the “Kill of non-replicating M. tuberculosis” value is 2–3 log. Moreover, the “Activity against replicating M. tuberculosis (kill kinetics)” value with M. tuberculosis (replicating bacteria in 7H9-Tw-OADC, over 21 days) is on record as “static activity”. Moreover, the “MIC99 S. cerevisiae” value in data set [10] was more than 10 µM.
